Experiment: In vitro drug release, USP 32 apparatus II dissolution
Type: physicochemical
Conditions: pH 6.8 (standard buffer KH2PO4/NaOH)
Description: Drug release was assessed using a USP 32 apparatus II dissolution system (Erweka DT 700, Erweka GmbH, Heusenstamm, Germany). Temperature and stirring rate was at 37±0.5° C. and 50 rpm respectively while the dissolution media was 0.1N HCl, buffers pH 1.5 and 4.5. Samples were withdrawn at predetermined intervals and replaced with the same volume of fresh medium, and the quantity of L-dopa released was quantified using UV spectroscopy. In vitro drug release studies were also undertaken for E3 matrices formulated from IPBs in varying normalities of acetic acid in buffer pH 1.5 (standard buffer KCl/HCl), pH 4.5 (0.025M KH2PO4/H2PO4) and pH 6.8 (standard buffer KH2PO4/NaOH) was employed to observe the behavior of the matrices and not for drug release as the model drug L-dopa was unstable at such pH values.
The incorporation of polymer-lipid nanoparticles into the IPB was undertaken as described earlier via direct compression. However, the L-dopa-loaded polymer-lipid nanoparticles was incorporated instead of L-dopa alone while the in vitro drug release was assessed as described earlier.

stability of the model drug in dissolution medium: unstable
Structure (SMILES): N[C@@H](Cc1ccc(O)c(O)c1)C(=O)O [L-dopa, 3-(3,4-dihydroxyphenyl)-L-alanine]

Source: US20140005269A1, “POLYMERIC MATRIX OF POLYMER-LIPID NANOPARTICLES AS A PHARMACEUTICAL DOSAGE FORM” (priority 2010, published 2014)
